Experiments:
[1] = system: 3D hESC-derived kidney organoids; assay: Nephrotoxicity assay in 3D kidney organoids; type: cell-based, human
Protocol: Organoids were then fixed with 4% paraformaldehyde (Electron Microscopy Sciences, #RT15710) for 20 minutes for both whole-mount and frozen section immunohistochemistry.
3D kidney organoids were fixed with 4% paraformaldehyde in PBS for 20 minutes at RT in a 96-well plate, then washed three times in PBS. The organoids were then incubated in blocking buffer (0.3% Triton X-100 and 5% normal donkey serum) for 1 hour at RT, then washed three times in PBS. The organoids were incubated with primary antibodies in antibody dilution buffer (0.3% Triton X-100 and 1% BSA in PBS) overnight at 4° C. The organoids were then washed with PBS three times for 1 hour each, with the third washing performed overnight at 4° C. For immunostaining with biotinylated LTL (Vector Labs, #B-1325), a Streptavidin/Biotin Blocking Kit (Vector Labs, #SP-2002) was used according to the manufacturer's protocol. The organoids were incubated with secondary antibodies in antibody dilution buffer for 1 hour at RT, then washed with PBS three times for 30 minutes each. Nuclei were counterstained with DAPI for more than 30 minutes. […]
Total RNA was purified from cells using the RNAeasy MiniKit (Qiagen). […] Quantitative RT-PCR was performed using the iQ5 Multicolor Real-Time PCR Detection System (Bio-Rad). […] Values were calculated by the delta delta CT method. […]

HDF-α hiPSCs = assay: Differentiation of hiPSCs into posterior intermediate mesoderm; type: cell-based, human; conditions: noggin 5 ng/mL with CHIR in the first step of differentiation
Protocol: hPSCs grown on Geltrex were washed once with PBS (Life Technologies, #10010-049) and dissociated into single cells with Accutase ([…] Technologies, #07920). Cells were then plated at a density of 2-2.4×10^4 (H9) or 1-1.4×10^4 (HDF, 2C) cells/cm^2 onto 24-well tissue culture plates (TPP, #92024) coated with 1% Geltrex in ReproFF2 supplemented with the ROCK inhibitor Y27632 (10 μM) (TOCRIS, #1254) and FGF2 (10 ng/ml). After 72 hours, cells (50% confluent) were briefly washed in PBS and then cultured in basic differentiation medium consisting of Advanced RPMI 1640 (Life Technologies, #12633-020) and 1X L-GlutaMAX (Life Technologies, #35050-061) supplemented with CHIR99021 (8-10 μM) (TOCRIS, #4423) for 4 days to induce late primitive streak cells Noggin (5 ng/ml) was also used for hiPSC differentiation in addition to CHIR (10 μM). To induce posterior intermediate mesoderm, cells were then cultured in Advanced RPMI+1X L-GlutaMAX+activin (10 ng/mL) (R&D, #338-AC-050) for 3 days. For induction of nephron progenitor cells, the media was then changed to Advanced RPMI+1X L-GlutaMAX+FGF9 (10 ng/ml) (R&D, #273-F9-025/CF) for 7 days. CHIR (3 μM) was added to the media from day 9 to 11 of differentiation to induce renal vesicles. On day 14, cells were switched to the basic differentiation medium and cultured for an additional 7 to 14 days (total of 21 to 28 days). […]

H9 hESCs = assay: Differentiation of hESCs into posterior intermediate mesoderm; type: cell-based, human; conditions: added to CHIR in the first step, hESCs
Protocol: hPSCs grown on Geltrex were washed once with PBS (Life Technologies, #10010-049) and dissociated into single cells with Accutase ([…] Technologies, #07920). Cells were then plated at a density of 2-2.4×10^4 (H9) or 1-1.4×10^4 (HDF, 2C) cells/cm^2 onto 24-well tissue culture plates (TPP, #92024) coated with 1% Geltrex in ReproFF2 supplemented with the ROCK inhibitor Y27632 (10 μM) (TOCRIS, #1254) and FGF2 (10 ng/ml). After 72 hours, cells (50% confluent) were briefly washed in PBS and then cultured in basic differentiation medium consisting of Advanced RPMI 1640 (Life Technologies, #12633-020) and 1X L-GlutaMAX (Life Technologies, #35050-061) supplemented with CHIR99021 (8-10 μM) (TOCRIS, #4423) for 4 days to induce late primitive streak cells Noggin (5 ng/ml) was also used for hiPSC differentiation in addition to CHIR (10 μM). To induce posterior intermediate mesoderm, cells were then cultured in Advanced RPMI+1X L-GlutaMAX+activin (10 ng/mL) (R&D, #338-AC-050) for 3 days. For induction of nephron progenitor cells, the media was then changed to Advanced RPMI+1X L-GlutaMAX+FGF9 (10 ng/ml) (R&D, #273-F9-025/CF) for 7 days. CHIR (3 μM) was added to the media from day 9 to 11 of differentiation to induce renal vesicles. On day 14, cells were switched to the basic differentiation medium and cultured for an additional 7 to 14 days (total of 21 to 28 days). The medium was replaced every 2 or 3 days. A variety of growth factors and small molecules were tested for differentiation.
PAX2 and LHX1 were not expressed (FIG. 1f), confirming that activin treatment of late primitive streak cells produced posterior and not anterior IM cells.
As the posterior primitive streak is induced by a BMP4 signal gradient, the Inventors hypothesized that CHIR treatment of HDF-α hiPSCs might induce endogenous BMP4 production that promotes differentiation into the posterior primitive streak and subsequently lateral plate mesoderm. […] Optimizing the protocol for individual cell lines based on their endogenous BMP4 production maximized the efficiency of generating posterior IM.

Excerpt for podocytes: Modeling glomerular diseases. The Inventors used puromycin and adriamycin which is known to induce FSGS (focal-segmental glomerulosclerosis).

COc1cccc2c1C(=O)c1c(O)c3c(c(O)c1C2=O)C[C@@](O)(C(=O)CO)C[C@@H]3O[C@H]1C[C@H](N)[C@H](O)[C@H](C)O1 [adriamycin]
structures of podocytes (podocytes): the structures of podocytes were disrupted

COc1ccc(C[C@H](N)C(=O)N[C@H]2[C@@H](O)[C@H](n3cnc4c(N(C)C)ncnc43)O[C@@H]2CO)cc1 [puromycin]
structures of podocytes (podocytes): the structures of podocytes were disrupted

gentamicin
KIM-1 expression by immunostaining (whole mount and frozen sections) ([1]; gentamicin 5 mg/mL for 48 hours after day 21): clear KIM-1 expression at the luminal surface of LTL+tubules but not in E-cadherin+ tubules
KIM-1 by real-time PCR ([1]; gentamicin 5×10^−4, 5×10^−2, or 5 mg/mL for 48 hours): KIM-1 upregulation by gentamicin in a dose-dependent manner

B1: noggin: a BMP4 signaling antagonist (protein, UniProt Q13253 28-232, looked up)
Noggin: QHYLHIRPAPSDNLPLVDLIEHPDPIFDPKEKDLNETLLRSLLGGHYDPGFMATSPPEDRPGGGGGAAGGAEDLAELDQLLRQRPSGAMPSEIKGLEFSEGLAQGKKQRLSKKLRRKLQMWLWSQTFCPVLYAWNDLGSRFWPRYVKVGSCFSKRSCSVPEGMVCKPSKSVHLTVLRWRCQRRGGQRCGWIPIQYPIISECKCSC
T, TBX6 and FOXF1 expression on day 4 (HDF-α hiPSCs): expressed T and TBX6 but not FOXF1 on day 4
WT1 expression on day 7 (H9 hESCs): significantly suppressed WT1 expression on day 7

From patent US20180258404A1, “METHODS OF GENERATING NEPHRONS FROM HUMAN PLURIPOTENT STEM CELLS” (THE BRIGHAM AND WOMEN'S HOSPITAL, INC., priority 2015, published 2018)
